Laboratory results: ChEMBL document CHEMBL5042478, “Design, Synthesis, and Evaluation of VHL-Based EZH2 Degraders to Enhance Therapeutic Activity against Lymphoma” (J Med Chem, 2021)
Active and inactive are the calls of the source. No cut-off for these calls is given here.

Columns and labels:
SU-DHL-6 [1] = experiment: Induction of cell cycle arrest in human SU-DHL-6 cells assessed as accumulation of cells at sub G1 phase at 1 to 5 uM after 24 hrs by flow cytometry; format: functional, cell-based; details: dose 1-5 µM
SUD4 = experiment: Antiproliferative activity against human SU-DHL-4 cells assessed as viable cells at 10 uM by cello meter auto T4 cell counter relative to control; format: functional; details: read-out: Activity
SU-DHL-6 [2] = experiment: Antiproliferative activity against human SU-DHL-6 cells assessed as viable cells at 10 uM by cello meter auto T4 cell counter relative to control; format: functional; details: read-out: Activity
SU-DHL-6 [3] = experiment: Antitumor activity against human SU-DHL-6 cells xenografted in nude Balb/c mouse assessed as reduction in H3K27me3 level in tumor tissue at 42.5 mg/kg, ip administered for 6 times weekly for 3 weeks by Western blot analysis; format: functional, organism-based
[4] = Toxicity in nude BALB/c mouse xenografted with SU-DHL-6 cells assessed as weight loss at 42.5 mg/kg, ip administered for 6 times weekly for 3 weeks; format: organism-based; details: in vivo, 504 h
SU-DHL-2 [5] = experiment: Antiproliferative activity against human SUDHL2 cells assessed as viable cells at 10 uM by cello meter auto T4 cell counter relative to control; format: functional; details: read-out: Activity
SU-DHL-2 [6] = experiment: Antiproliferative activity against EZH2 knockdown human SUDHL2 cells assessed as cell growth inhibition measured upto 6 days; format: functional, cell-based; details: time day <=6
SU-DHL-6 [7] = experiment: Induction of apoptosis in human SU-DHL-6 cells at 1 to 5 uM incubated for 48 hrs by Annexin V/propidium iodide staining based flow cytometry; format: functional, cell-based; details: dose 1-5 µM
SU-DHL-6 [8] = experiment: Induction of cell cycle arrest in human SU-DHL-6 cells assessed as accumulation of cells at G0/G1 phase at 1 to 5 uM after 24 hrs by flow cytometry; format: functional, cell-based; details: dose 1-5 µM

With `CCN(c1cc(-c2ccc(CN3CCOCC3)cc2)cc(C(=O)NCc2c(C)cc(C)[nH]c2=O)c1C)C1CCOCC1` [TAZEMETOSTAT] the Activity (SU-DHL-6 [1]) was “inactive”, the viability at 10 µM (SUD4) was 25% and the viability at 10 µM (SU-DHL-6 [2]) was 25%. For the same molecule, the Activity (SU-DHL-6 [3]) was “Active”, the Activity [4] was “Non-Toxic” and the viability at 10 µM (SU-DHL-2 [5]) was 25%. For the same molecule, the Activity (SU-DHL-2 [6]) was “Active”, the Activity (SU-DHL-6 [7]) was “inactive” and the Activity (SU-DHL-6 [8]) was “Active”.
